The values that follow come from patent US7235534B2, “Antisense strategy to modulate estrogen receptor response (ER α and/or ER β )” (Institut de Cardiologie de Montreal, priority 2001, dated 2007).

For assay [1] the following is noted: local delivery upon porcine coronary angioplasty; cited from earlier work.
A further assay concerns p42/44 MAPK. The assay is described as follows: Western blot of p42/44 MAPK phosphorylation in PAEC. It is filed as cell-based, porcine. To be noted: for decrease of p42/44 MAPK phosphorylation induced by 5 min stimulation of 17βE: antagonist 10^−7M 5 min prior to 17βE 10^−8M. Here is the method: Confluent PAEC and PSMC were starved for 7 hours in DMEM and antibiotics. Culture medium was removed, and cells were rinsed twice with ice-cold DMEM. PSMC were incubated on ice in DMEM with or without 17βE (10^−8M) for 30 min, incubated at 37° C. for 5, 10, 15 and 30 min, then brought back on ice. Cell were then rinsed with cold DMEM, incubated on ice in DMEM, bovine serum albumin (1 mg/ml), PDGF-BB (10 ng/ml) for 30 min, incubated at 37° C. for 5 min, and then brought back on ice. […] […] Total proteins were prepared by the addition of 500 μl of lysis buffer containing phenylmethylsulfonyl fluoride 1 mM, leupeptin 10 μg/ml, aprotinin 30 μg/ml, and NaVO3 1 mM (Sigma). Plates were incubated at 4° C. for 30 min and scraped, and the protein concentration was determined with a Bio-Rad protein kit (Bio-Rad, Hercules, Calif.). Same protein quantity for each cell type and condition were dissolved in Laemmli's buffer, boiled for 5 min in reducing conditions, separated by a 10% gradient SDS-PAGE (Protean II kit; Bio-Rad), and transblotted onto a 0.45-μm polyvinylidene difluoride membranes (Millipore Corp., Bedford, Mass.). The membranes were blocked in 5% Blotto-TTBS (5% nonfat dry milk; Bio-Rad), 0.05% Tween 20, 0.15 M NaCl, 25 mM Tris-HCl, pH 7.5) for 1 h at room temperature with gentle agitation and incubated overnight at 4° C. in 0.5% Blotto-TTBS with the addition of an anti-phospho p42/44 MAPK or an anti-phospho p38 MAPK rabbit polyclonal antiserums (α-pp42/44; dilution of 1:10 000, and α-pp38; dilution 1:5000, New England BioLabs, Beverly, Mass.). Membranes were washed with TTBS, and incubated at room temperature with an anti-rabbit IgG antibody coupled to horseradish peroxidase (dilution 1:10 000–1:20 000, Santa Cruz Biotechnology, Santa Cruz, Calif.) in 0.5% Blotto-TTBS for 30 min. […] Kaleidoscope molecular weight and SDS-plyacrylamide gel electrophoresis broad range marker proteins (Bio-Rad) were used as standards for SDS-plyacrylamide gel electrophoresis. Digital image densitometry (PDI Bioscience, Aurora, ON) was performed on x-ray film to determine relative percentages of p42/44 and p38 MAPK phosphorylation.
Confluent PAEC and PSMC were preteated with or without antisense sequences as described above for Western Blot analysis. Cells were rinsed twice with ice-cold DMEM. PSMC and PAEC were stimulated with or without 17βE (10^−8 mol/L) as previously described (Geraldes P). Briefly, PSMC were incubated on ice in DMEM with or without 17βE (10^−8 mol/L) for 30 minutes, incubated at 37° C. for 30 minutes, then brought back on ice. Cells were then rinsed with cold DMEM, incubated on ice in DMEM, bovine serum albumin (1 mg/mL), PDGF-BB (10 ng/mL) for 30 minutes, incubated at 37° C. for 5 and 30 minutes, and then brought back on ice. PAEC were incubated on ice in DMEM with or without 17βE (10^−8 mol/L) for 30 minutes, then incubated at 37° C. for 5 and 30 minutes and brought back on ice. Total proteins were prepared-by the addition of 500 μL of lysis buffer, incubated at 4° C. for 30 minutes and scraped to collect the proteins. Same quantity of protein was separated by a 10% gradient SDS-PAGE (Protean II kit; Bio-Rad), and transblotted onto a 0.45-μm polyvinylidene difluoride membranes (Millipore Corp.). The membranes were blocked for 1 hour at room temperature with gentle agitation and incubated overnight at 4° C. in 0.5% Blotto-TTBS with the addition of an antiphospho p42/44 MAPK or an antiphospho p38 MAPK rabbit polyclonal antiserums (α-pp42/44; dilution of 1:10000, and α-pp38; dilution 1:5 000, New England BioLabs, Beverly, Mass.). Membranes were washed with TTBS, and incubated at room temperature with an anti-rabbit IgG antibody coupled to horseradish peroxidase (dilution 1:10 000–1:20 000, Santa Cruz Biotechnology) in 0.5% Blotto-TTBS for 30 minutes. […] Digital image densitometry (PDI Bioscience) was performed on X-ray film to determine relative phosphorylation of p42/44 and p38 MAPK. […]

The test system of assay [2] is Porcine aortic endothelial cells (PAEC). The assay is described as follows: Chemotactic assay on PAEC (modified Boyden chamber). It is filed as cell-based. Here is the method:
Cell migration was evaluated using a modified Boyden 48-well microchamber kit (NeuroProbe, Cabin John, MD.). Near confluent EC and PSMC were rinsed with DMEM and trypsinized. Cells were resuspended in DMEM, 5% FBS, and antibiotics, and a cell count was obtained. […] ER antagonists were added 5 minutes before 17βE. Cells were harvested by trypsinization and resuspended in DMEM, 1% FBS, and antibiotics at a concentration of 5×10^5 cells/ml. […] The two sections of the system were separated by a porous polycarbonate filter (5-μm pores), pre-treated with a gelatine solution (1.5 mg/ml), and assembled. Five hours post incubation at 37° C., the nonmigrated cells were scraped with a plastic policeman, and the migrated cells were stained using a Quick-Diff solution. The filter was then mounted on a glass slide, and migrated cells were counted using a microscope adapted to a video camera to obtain a computer-digitized image.
Cell migration was evaluated using a modified Boyden 48-well microchamber kit (NeuroProbe, Cabin John, MD.). Near confluent PAEC and PSMC were rinsed with DMEM and trypsinized. Cells were resuspended in DMEM, 5% FBS, and antibiotics, and a cell count was obtained. PAEC and PSMC were seeded at 2.5×10^5 cells/well of 6-well tissue culture plates; stimulated for 24 hours in DMEM, 5% FBS, and antibiotics with or without antisense oligomers (10^−6 mol/L) and starved for 48 hours in DMEM, 0.1% FBS, and antibiotics with or without antisense oligomers (10^−6 mol/L daily) with or without 17βE (10^−8 mol/L). Cells were harvested by trypsinization and resuspended in DMEM, 1% FBS, and antibiotics at a concentration of 5×10^5 cells/mL. Fifty μL of this cell suspension with or without antisense oligomers (10^−6 mol/L) treated with or without 17βE (10^−8 mol/L) was added in the higher-chamber of the modified Boyden chamber apparatus, and the lower chamber was filled with DMEM, 1% FBS, antibiotics plus the desired concentration of agonist either 17βE (10^−8 mol/L) or platelet-derived growth factor-BB (PDGF-BB). The 2 sections of the system were separated by a porous polycarbonate filter (5-μm pores size), pretreated with a gelatine solution (1.5 mg/mL), and assembled. Five hours postincubation at 37° C., the non-migrated cells were scraped with a plastic policeman, and the migrated cells were stained using a Quick-Diff solution (Shandon Inc). The filter was then mounted on a glass slide, and migrated cells were counted using a microscope adapted to a video camera to obtain a computer-digitized image.

Molecules are shown by their SMILES.

`C[C@]12CC[C@@H]3c4ccc(O)cc4CC[C@H]3[C@@H]1CC[C@@H]2O` [17βE, 17-beta-estradiol]: the “reduction of the degree of restenosis” value in assay [1] was “up to 50%”. The “increase of p42/44 MAPK phosphorylation” value with p42/44 MAPK (17βE 10^−8M, 5 minutes, Example 1) came out at 1122%; in the assay on p42/44 MAPK (17βE 10^−8M, 10 minutes), 1074%; with p42/44 MAPK (17βE 10^−8M, 15 minutes), 1420%; in the assay on p42/44 MAPK (17βE 10^−8M, 30 minutes) it was 1835%; in the assay on p42/44 MAPK (17βE 10^−8 mol/L, 5 minutes, Example 2), 329%. Further, in assay [2] (17βE 10^−8M combined with bFGF), the “stimulation of PAEC migration as compared to bFGF (10 ng/ml) alone” value is given as 121%. In assay [2] (17βE 10^−8 mol/L, 5 hours), the “induction of PAEC migration as compared to DMEM 1%” value amounted to 4.63 fold.

Consider `O=C(c1ccc(OCN2CCCCC2)cc1)c1c(-c2ccc(O)cc2)sc2cc(O)ccc12` [Ral, Raloxifen], for which the “decrease of p42/44 MAPK phosphorylation induced by 5 min stimulation of 17βE” value (“decrease” below) with p42/44 MAPK amounted to 66%.

For the compound `CC/C(=C(\c1ccccc1)c1ccc(OCCN(C)C)cc1)c1ccccc1` [Tam, Tamoxifen], in the assay on p42/44 MAPK, the “decrease” value was determined as 36%.

`CC/C(=C(\c1ccc(O)cc1)c1ccc(OCCN(C)C)cc1)c1ccccc1` [4-OHT, 4-OH-Tamoxifen]: in the assay on p42/44 MAPK, the “decrease” value is recorded as 44%.
